Measurements published in ChEMBL document CHEMBL4028802, “DILIrank: the largest reference drug list ranked by the risk for developing drug-induced liver injury in humans” (Drug Discov Today, 2016).

Columns and labels:
Homo sapiens [1] = organism: Homo sapiens; experiment: Liver toxicity in human assessed as induction of drug-induced liver injury by measuring severity class index
Homo sapiens [2] = organism: Homo sapiens; experiment: Liver toxicity in human assessed as induction of drug-induced liver injury by measuring verified drug-induced liver injury concern status
For DILI severity class in this document: key of the grades not given here.

Row | Molecule | DILI_severity_class (Homo sapiens [1]) | DILI_Concern (Homo sapiens [2])
1 | CC1=C(CCC(=O)O)c2cc3[nH]c(cc4[nH]c(cc5nc(cc1n2)C(C)=C5C(C)OC(C)c1c(C)c2cc5nc(cc6nc(cc7[nH]c(cc1[nH]2)c(C)c7CCC(=O)O)C(CCC(=O)O)=C6C)C(C(C)O)=C5C)c(C)c4C(C)O)c(C)c3CCC(=O)O (stereo unspecified) | 0 | No-Dili-Concern
2 | O=NN(CCCl)C(=O)NC1CCCCC1 [LOMUSTINE] | 3 | Less-Dili-Concern
3 | CC(C)c1cccc(C(C)C)c1O [PROPOFOL] | 3 | Less-Dili-Concern
4 | CC(C)(N)CO.Cn1c(=O)c2[nH]c(Br)nc2n(C)c1=O [PAMABROM] | 0 | No-Dili-Concern
5 | CN1[C@@H]2CC[C@H]1C[C@@H](OC(=O)C(CO)c1ccccc1)C2 (stereo partly specified) [ATROPINE] | 0 | No-Dili-Concern
6 | CCCCS(=O)(=O)N[C@@H](Cc1ccc(OCCCCC2CCNCC2)cc1)C(=O)O [TIROFIBAN] | 0 | No-Dili-Concern
7 | N[C@@H](Cc1ccc(N(CCCl)CCCl)cc1)C(=O)O | 5 | Less-Dili-Concern
8 | CC(=O)NC[C@H]1CN(c2ccc(N3CCOCC3)c(F)c2)C(=O)O1 [LINEZOLID] | 3 | Less-Dili-Concern
9 | C[C@H]1O[C@H](O[C@H]2[C@H](O)[C@@H](O)[C@@H](O[C@H]3[C@H](O)[C@@H](O)C(O)O[C@@H]3CO)O[C@@H]2CO)[C@H](O)[C@@H](O)[C@@H]1N[C@H]1C=C(CO)[C@@H](O)[C@H](O)[C@H]1O (stereo partly specified) [ACARBOSE] | 8 | Most-Dili-Concern
10 | OC[C@@H](O)[C@@H](O)[C@H](O)[C@H](O)CO [MANNITOL] | 0 | No-Dili-Concern
11 | CCCC(=O)OCOC(=O)C1=C(C)NC(C)=C(C(=O)OC)C1c1cccc(Cl)c1Cl (stereo unspecified) [CLEVIDIPINE] | 0 | No-Dili-Concern
12 | O=C(O)C[C@H](O)C[C@H](O)/C=C/c1c(C2CC2)nc2ccccc2c1-c1ccc(F)cc1 [PITAVASTATIN] | 3 | Ambiguous-Dili-Concern
13 | CCCc1nc(C)c2c(=O)[nH]c(-c3cc(S(=O)(=O)N4CCN(CC)CC4)ccc3OCC)nn12 | 3 | Ambiguous-Dili-Concern
14 | C=CCOc1ccc(CC(=O)O)cc1Cl [ALCLOFENAC] | 8 | Most-Dili-Concern
15 | C[C@@H](Cc1ccccc1)NC(=O)[C@@H](N)CCCCN [LISDEXAMFETAMINE] | 3 | Ambiguous-Dili-Concern
16 | CCCC(=O)Nc1ccc(OCC(O)CNC(C)C)c(C(C)=O)c1 (stereo unspecified) [ACEBUTOLOL] | 3 | Less-Dili-Concern
17 | H-SEEPPISLDLTFHLLREVLEMARAEQLAQQAHSNRKMLEII-OH | 0 | No-Dili-Concern
18 | CCC1(c2ccccc2)C(=O)NCNC1=O [PRIMIDONE] | 0 | No-Dili-Concern
19 | CC(N)C12CC3CC(CC(C3)C1)C2 (stereo unspecified) [RIMANTADINE] | 0 | No-Dili-Concern

Row | Molecule | DILI_severity_class (Homo sapiens [1]) | DILI_Concern (Homo sapiens [2])
20 | COC(=O)CCc1ccc(OCC(O)CNC(C)C)cc1 (stereo unspecified) [ESMOLOL] | 0 | No-Dili-Concern
21 | O=c1n(CCCN2CCN(c3cccc(Cl)c3)CC2)nc2ccccn12 [TRAZODONE] | 5 | Less-Dili-Concern
22 | CO[C@H]1C[C@@H]2CC[C@@H](C)[C@@](O)(O2)C(=O)C(=O)N2CCCC[C@H]2C(=O)O[C@H]([C@H](C)C[C@@H]2CC[C@@H](OC(=O)C(C)(CO)CO)[C@H](OC)C2)CC(=O)[C@H](C)/C=C(\C)[C@@H](O)[C@@H](OC)C(=O)[C@H](C)C[C@H](C)/C=C/C=C/C=C/1C [TEMSIROLIMUS] | 0 | No-Dili-Concern
23 | CC(C)Nc1cccnc1N1CCN(C(=O)c2cc3cc(NS(C)(=O)=O)ccc3[nH]2)CC1 [DELAVIRDINE] | 5 | Ambiguous-Dili-Concern
24 | CNCC[C@H](Oc1cccc2ccccc12)c1cccs1 [DULOXETINE] | 8 | Most-Dili-Concern
25 | CC(=O)O.CCNC(=O)[C@@H]1CCCN1C(=O)[C@H](CCCNC(=N)N)NC(=O)[C@H](CC(C)C)NC(=O)[C@@H](Cc1cn(Cc2ccccc2)cn1)NC(=O)[C@H](Cc1ccc(O)cc1)NC(=O)[C@H](CO)NC(=O)[C@H](Cc1c[nH]c2ccccc12)NC(=O)[C@H](Cc1cnc[nH]1)NC(=O)[C@@H]1CCC(=O)N1 [HISTRELIN ACETATE] | 3 | Ambiguous-Dili-Concern
26 | CN1[C@@H]2C[C@@H](OC(=O)[C@H](CO)c3ccccc3)C[C@H]1[C@@H]1O[C@@H]12 [SCOPOLAMINE] | 0 | No-Dili-Concern
27 | O=P1(N(CCCl)CCCl)NCCCO1 (stereo unspecified) [CYCLOPHOSPHAMIDE ANHYDROUS] | 5 | Less-Dili-Concern
28 | COc1c(C)c2c(c(O)c1C/C=C(\C)CCC(=O)O)C(=O)OC2 [MYCOPHENOLIC ACID] | 3 | Ambiguous-Dili-Concern
29 | O=S(=O)(OC[C@H]1O[C@@H](O[C@]2(COS(=O)(=O)[O][Al]([OH])[OH])O[C@H](OS(=O)(=O)[O][Al]([OH])[OH])[C@@H](OS(=O)(=O)[O][Al]([OH])[OH])[C@@H]2OS(=O)(=O)[O][Al]([OH])[OH])[C@H](OS(=O)(=O)[O][Al]([OH])[OH])[C@@H](OS(=O)(=O)[O][Al]([OH])[OH])[C@@H]1OS(=O)(=O)[O][Al]([OH])[OH])[O][Al]([OH])[OH].[OH][Al]([OH])[OH].[OH][Al]([OH])[OH].[OH][Al]([OH])[OH].[OH][Al]([OH])[OH].[OH][Al]([OH])[OH].[OH][Al]([OH])[OH].[OH][Al]([OH])[OH].[OH][Al]([OH])[OH] | 0 | No-Dili-Concern
30 | Cc1nc(C)c2c(n1)N(Cc1ccc(-c3ccccc3-c3nnn[nH]3)cc1)C(=O)CC2 [TASOSARTAN] | 8 | Most-Dili-Concern
31 | N=C(N)N [GUANIDINE] | 3 | Ambiguous-Dili-Concern
32 | O=C1CN=C(c2ccccc2Cl)c2cc([N+](=O)[O-])ccc2N1 [CLONAZEPAM] | 3 | Less-Dili-Concern
33 | CCN1CCN(C(=O)N[C@@H](C(=O)N[C@@H]2C(=O)N3C(C(=O)O)=C(CSc4nnnn4C)CS[C@H]23)c2ccc(O)cc2)C(=O)C1=O [CEFOPERAZONE] | 3 | Less-Dili-Concern
34 | CCCCNc1cc(C(=O)O)cc(S(N)(=O)=O)c1Oc1ccccc1 [BUMETANIDE] | 3 | Ambiguous-Dili-Concern
35 | O=C(O)C1N=C(c2ccccc2)c2cc(Cl)ccc2NC1=O (stereo unspecified) [CLORAZEPIC ACID] | 3 | Ambiguous-Dili-Concern
36 | Cc1cc(C)cc(OCC2CNC(=O)O2)c1 (stereo unspecified) [METAXALONE] | 5 | Less-Dili-Concern
37 | O=C(O)CCCO [OXYBATE] | 0 | No-Dili-Concern
38 | CCOC(=O)C1=C(C)NC(C)=C(C(=O)OC)C1c1cccc(Cl)c1Cl (stereo unspecified) [FELODIPINE] | 3 | Less-Dili-Concern
